Assay results: patent US11267840B1, “Compound or salt thereof” (M.T.3, Inc., priority 2020, dated 2022)

Tests used:
[1] = target: T1, lipase for organic synthesis (Lipase PS Amano SD) (Burkholderia cepacia, UniProt P22088); assay type: in vitro ADME
T1 construct: purchased FUJIFILM Wako Pure Chemical Corporation
Procedure: The test compound and lipase for organic synthesis (Lipase PS Amano SD, manufactured by FUJIFILM Wako Pure Chemical Corporation) were each adjusted using PBS so as to have a concentration of 1.3 μg/μL. Next, the thus obtained reaction solution was developed by TLC using an eluent (chloroform:methanol=1:1) and was analyzed. A sample that was taken before reaction progressed, a sample that was taken when 2 hours elapsed, and a sample that was taken when 4 hours elapsed were each used as the reaction solution to be developed. As for the reaction solution in which the compound (A) was used as the test compound, analysis was also performed on a sample that was taken when 18 hours elapsed from the start of reaction. TLC aluminum sheet silica gel 60 F254 (manufactured by Merck) was used as the TLC.

[2] = system: adenocarcinomic human alveolar basal epithelial cell line A549 cells; experiment: ROS production in A549 cells (CellROX Green fluorescence), test as candidate compound for radiosensitizer; assay type: cell-based; conditions: 1 hour with test compound, CellROX Green 30 minutes, excitation 485 nm, detection 520 nm, FIG. 19
Procedure: Fetal bovine serum (FBS) (manufactured by Sigma-Aldrich) was added to RPMI1640 (manufactured by Sigma-Aldrich) such that a final concentration was 10%. Further, penicillin G potassium (manufactured by Meiji Seika) and Streptomycin (manufactured by Meiji Seika) were each added in an amount of 0.1 mg/mL, and the thus obtained solution was used as a culture medium in the following test. Also, a CellROX Green Reagent solution (manufactured by Thermo Fisher Scientific) was used as a reagent.
Adenocarcinomic human alveolar basal epithelial cell line A549 cells were suspended in the RPMI1640 medium (1.0×10^5 cells/mL), and the suspension was poured into a 96-well plate in an amount of 100 μL for each well. Thereafter, the cells were cultivated under a 5% CO2 moisture-saturated condition at 37° C. so as to attach to the plate, and after the cultivation was performed for 24 hours, the medium was removed by suction and the cells were washed with PBS. Next, 100 μL of PBS and 100 μL of a suspension of the test compound suspended in PBS ([…]) were separately added. […] After the cultivation was performed for 30 minutes, washing was performed using PBS, and fluorescence intensity at an excitation wavelength of 485 nm and a detection wavelength of 520 nm was measured.

T1 sequence (P22088 45-364): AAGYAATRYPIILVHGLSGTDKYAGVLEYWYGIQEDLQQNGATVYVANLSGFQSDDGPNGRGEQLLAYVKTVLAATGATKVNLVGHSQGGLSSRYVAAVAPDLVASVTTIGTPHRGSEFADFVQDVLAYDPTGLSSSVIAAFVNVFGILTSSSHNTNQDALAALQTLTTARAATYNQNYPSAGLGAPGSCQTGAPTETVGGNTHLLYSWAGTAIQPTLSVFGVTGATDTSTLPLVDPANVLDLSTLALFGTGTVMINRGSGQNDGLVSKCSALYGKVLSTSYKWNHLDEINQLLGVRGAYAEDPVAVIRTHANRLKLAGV

3-(n-octadecyloxy)-n-propyl-α-D-quinovopyranoside sodium salt [compound (A)]
resistance to hydrolysis compared with the sulfopyranosylacyl propanediol derivative ([1]; lipase, overall conclusion of FIG. 20): more excellent resistance to hydrolysis
decomposition of the test compound by lipase (TLC) ([1]; when 18 hours elapsed from the start of reaction, compound and lipase each 1.3 μg/μL in PBS, FIG. 20): not completely decomposed
ROS production (ROS production ratio, fluorescence intensity relative to PBS only = 1) [2]: induced production of the ROS
